The test system of one test is chronic nephritis rats. Kind of test: chronic nephritis rat model (passive Heymann nephritis). In kind it is in vivo, SD rats. The following applies: dexamethasone 0.1 mg/kg, gavage; for IL-1α / IL-1β / IL-6 / IL-10 / Scr: serum. As to the method:
(§1) The solid dispersions are prepared through a solvent method, comprising steps of: respectively precisely weighing LM49, PVPK30 and tween80 with a weight ratio of 1:5:1, and A8, PVPK30 and tween80 with a weight ratio of 1:4:1; dissolving with appropriate absolute ethyl alcohol, continuously stirring, and uniformly mixing; placing on the water bath at 60° C., evaporating and removing the absolute ethyl alcohol, and obtaining a viscous material; placing in the freezer at −20° C., and freezing for 2 hours; taking out from the freezer, then placing in the vacuum drying oven, and drying for 24 hours; after becoming embrittlement, smashing and sieving with a sieve of 80 meshes, and then placing in the dryer for storage.
The passive Heymann nephritis is the classic model for researching the human chronic nephrosis. Thus, the present invention researches the effects of the two disclosed compounds on preventing the chronic nephritis with the model.
Ninety male SD rats having a weight of 180-220 g are selected, wherein: ten rats are selected as a blank group, and the remaining rats are used for preparing the rat Heymann nephritis models according to the method (disclosed in Journal of Proteomics, 2012, 75(3): pages 3866-3876). The successively established model rats are randomly divided into the model group, the positive control group (dexamethasone with a concentration of 0.1 mg/kg), the LM49 solid dispersion low-dose group (with the drug concentration of 3 mg/kg), the LM49 solid dispersion medium-dose group (with the drug concentration of 9 mg/kg), the LM49 solid dispersion high-dose group (with the drug concentration of 27 mg/kg), the A8 solid dispersion low-dose group (with the drug concentration of 3 mg/kg), the A8 solid dispersion medium-dose group (with the drug concentration of 9 mg/kg), and the A8 solid dispersion high-dose group (with the drug concentration of 27 mg/kg).
The rats of the blank group and the model group are administrated with the normal saline of same volume, and the rats of the other groups are respectively administrated with the drugs of the corresponding dose, by gavage, every day from model establishment for four weeks.
The blood of the rats of all groups is drawn at the second week and the fourth week from model establishment and 24-hour urine thereof is collected, for respectively measuring the contents of the urinary albumin, serum creatinine (Scr) in the serum, BUN, IL-1α, IL-1β, IL-6 and IL-10.
The data is represented in mean±(standard deviation) (x±s) and processed with the SPSS 19.0 statistical software. The one-way analysis of variance (ANOVA) is adopted for comparison among the groups, and then the LSD-Test is adopted for pairwise comparison. The differences of P<0.05 and P<0.01 are statistically significant.

For test [1], the system named is Escherichia coli ATCC25922 standard strain. Kind of test: urinary and renal bacterial culture of acute pyelonephritis rats. The class given is in vivo, SD rats. Conditions: norfloxacin 66.7 mg/kg, gavage, 10 days. As to the method: Ninety male SD rats having a weight of 180-220 g are selected, wherein: ten rats are selected as a sham-operated group (only being processed with ligation, without injecting with Escherichia coli), and the remaining rats are injected with Escherichia coli ATCC25922 standard strain having a concentration of 10^8/ml according to the method (disclosed in the Chinese Journal of Laboratory Animal Science, 1998, 8(1): pages 31-34) for preparing the acute pyelonephritis model rats.
After three days, urine of the rats is collected for bacterial culture, and the growth situation of the bacteria is observed. If the result is positive, the model rats are successively established; the unqualified rats are excluded, and the operation is made again for complementing the rats. The successively established model rats are randomly divided into the model group, the norfloxacin group (66.7 mg/kg), the LM49 solid dispersion low-dose group (with the drug concentration of 3 mg/kg), the LM49 solid dispersion medium-dose group (with the drug concentration of 9 mg/kg), the LM49 solid dispersion high-dose group (with the drug concentration of 27 mg/kg), the A8 solid dispersion low-dose group (with the drug concentration of 3 mg/kg), the A8 solid dispersion medium-dose group (with the drug concentration of 9 mg/kg), and the A8 solid dispersion high-dose group (with the drug concentration of 27 mg/kg).
The rats of the sham-operated group and the model group are administrated with the normal saline of same volume by gavage, and the rats of the other groups are respectively administrated with the drugs of the corresponding dose, once a day for consecutive ten days.
After finishing administration, urine of the rats of all groups is collected (for observing the bacterial growth situation). The abdominal aorta blood of the rats is drawn (for measuring the blood routine, CD4/CD8, urine creatinine and serum creatinine in the serum; and for measuring contents of IL-1α, IL-1β, IL-6, IL-10 and MCP-1 in the serum with the ELISA method). Two kidneys of each rat are cut (wherein a part is homogenated for bacterial culture, and the other part is used for observing the pathomorphology change).

A further test relates to DN rats. Kind of test: type II diabetic nephropathy (DN) rat model (high-sugar high-fat diet + streptozocin). In kind it is in vivo, SD (Sprague Dawley) rats. Conditions: DN rats, captopril 15 mg/kg, gavage, 6 weeks. As to the method: as §1
The healthy adult male SD rats (having a weight of 180-220 g) are fed with the high-sugar and high-fat diet for 4 weeks; the rats are fasting overnight; and streptozocin (STZ) of 40 mg/kg is intraperitoneally injected into the rats. The rats of normal control group are injected with the sodium citrate buffer of same volume; 72 hours later, the rats are fasting for 12 hours. […] During the administration period, the successfully established model rats are still fed with the high-sugar and high-fat diet, while the rats of the normal control group are fed with the normal diet.
After administration for 6 weeks, 6-hour urine of the rats is collected with the metabolism cage.
The rats are fasting overnight and anesthetized intraperitoneally, then the abdominal aorta blood thereof is drawn for measuring the related indexes. The two kidneys of each rat are washed with the normal saline; weights of the kidneys are recorded; and the kidney coefficient (weights of two kidneys/body weight) is calculated. The renal tissues (comprising the glomerulus and renal tubules) at the same part of the left kidney are cut lengthwise and immersed in the 10% neutral formalin for pathomorphology analysis, and the other parts of the left kidney are used for biochemical index measurement; the right kidney is used for mechanism research and stored in the freezer at −80° C.
After successfully establishing the model rats, expect the normal control group (ten rats), the remaining rats are randomly divided into eight groups, wherein each group has twelve rats. The eight groups are respectively the model group, the LM49 solid dispersion low-dose group (with the drug concentration of 3 mg/kg), the LM49 solid dispersion medium-dose group (with the drug concentration of 9 mg/kg), the LM49 solid dispersion high-dose group (with the drug concentration of 27 mg/kg), the A8 solid dispersion low-dose group (with the drug concentration of 3 mg/kg), the A8 solid dispersion medium-dose group (with the drug concentration of 9 mg/kg), the A8 solid dispersion high-dose group (with the drug concentration of 27 mg/kg), and the captopril control group (with the drug concentration of 15 mg/kg).
Administration Way: By Gavage.
The rats of the normal control group and the model group are administrated with the normal saline of 1.0 ml/100 g; the rats of the positive control group, the LM49 solid dispersion high-dose, medium-dose and low-dose groups and the A8 solid dispersion high-dose, medium-dose and low-dose groups are respectively administrated with the drugs of different concentrations, and the administration volume is 1.0 ml/100 g.
The solid dispersions are dissolved by the normal saline; and the rats of the positive control group are administrated with the 0.5% CMC-Na (sodium carboxymethyl cellulose) suspension.
The rats are administrated seven days a week, for totally six weeks.
The IBM SPSS Statistics 20 software is used for data processing, and the data is represented in x±s. The one-way analysis of variance (ANOVA) is adopted for comparison among the groups. According to the homogeneity test results of variance, if the variance is equal, the LSD (least significant difference) test is adopted; if the variance is unequal, the Dunnett's T3 test is adopted. […]

These results are taken from US20190133968A1, “Applications of benzophenones in preparation of drug” (SHANXI MEDICAL UNIVERSITY, priority 2016, published 2019).

Take `C[C@@H]1C[C@H]2[C@@H]3CCC4=CC(=O)C=C[C@]4(C)[C@@]3(F)[C@@H](O)C[C@]2(C)[C@@]1(O)C(=O)CO` [Dexamethasone, dexamethasone, reference compound]: in the test on chronic nephritis rats (Fourth week), the “24-hour urinary protein quantitation” value was 19.99 ± 3.5^ΔΔ mg/24 h, the IL-1α is reported as 9.33 ± 4.22^Δ pg/ml, the IL-1β is 163.44 ± 59.31^Δ pg/ml and the IL-6 is 61.31 ± 25.66^ΔΔ pg/ml. Further, in the test on chronic nephritis rats (Fourth week), the IL-10 is given as 29.44 ± 59.31^ΔΔ pg/ml and the Scr amounted to 44.32 ± 13.3 µmol/L. Moreover, in the test on chronic nephritis rats (Second week), the “24-hour urinary protein quantitation” value is listed as 20.87 ± 4.4^Δ mg/24 h, the IL-1α was 10.47 ± 2.45^Δ pg/ml, the IL-1β was 184.55 ± 57.22^Δ pg/ml and the IL-6 is 87.01 ± 31.44^ΔΔ pg/ml. For the same molecule, in the test with chronic nephritis rats (Second week), the IL-10 is 51.09 ± 7.55 pg/mL and the Scr turned out to be 46.22 ± 10.4 µmol/L.

With `CCn1cc(C(=O)O)c(=O)c2cc(F)c(N3CCNCC3)cc21` [Norfloxacin, norfloxacin, reference compound], the “Renal bacterial culture score” value in test [1] (mean score, scale 1-4 of Table 10 (colony number <10, >10, >100, >1000)) is listed as 1.2 ± 0.42^ΔΔ. In test [1] (urine culture), the “Urinary bacterial A value (OD600 nm)” value is listed as 0.254 ± 0.082^ΔΔ.

With `C[C@H](CS)C(=O)N1CCC[C@H]1C(=O)O` [captopril, reference compound], in the test with DN rats, the BUN is 10.91 ± 1.15 mmol/L, the CREA turned out to be 52.15 ± 3.40 µmol/L and the Glycated hemoglobin came out at 8.88 ± 0.55%. Also, in the test with DN rats (6-hour urine), the Urinary protein is listed as 5.93 ± 1.59^□□ mg/6 h and the “mALB (microalbumin in urine)” value is reported as 76.69 ± 7.69^□□ μg/6 h. In addition, in the test with DN rats (renal tissues), the ICAM-1 was found to be 246.36 ± 49.25 pg/mgprog, the IL-1β was 102.32 ± 22.70 pg/mgprog, the IL-6 is recorded as 107.50 ± 20.22^□□ pg/mgprog and the MDA amounted to 1.04 ± 0.24 nmol/mgprog. In the test with DN rats (renal tissues), the NF-κB is on record as 174.49 ± 45.87^□□ pg/mgprog, the SOD is given as 4.42 ± 0.94 U/mgprog, the T-AOC was 1.48 ± 0.41 U/mgprog and the TGF-β1 is 36.72 ± 11.42^□□ pg/mgprot. In the test with DN rats (renal tissues), the TNF-α is recorded as 292.79 ± 81.62^□ pg/mgprog and the VCAM-1 is given as 23.79 ± 3.50 pg/mgprog. In addition, in the test with DN rats (serum), the “Glucose (GLU)” value is listed as 16.66 ± 4.34^□□ mmol/L, the HDL-C was determined as 1.19 ± 0.35 mmol/L, the LDL-C was 1.80 ± 0.27^□□ mmol/L and the TC was 3.06 ± 0.43^□□ mmol/L. Besides, in the test on DN rats (serum), the TG is given as 0.37 ± 0.09^□□ mmol/L and the UA is given as 49.00 ± 3.24^□□ μmol/L. In addition, the Kidney coefficient in the test with DN rats (weights of two kidneys/body weight) stood at 1.02 ± 0.06%.
